Test: Inhibition of IMP1 expressed in Escherichia coli BL21 (DE3)

O=C(O)C(CS)CCCc1ccccc1 (racemic)
Ki: 1660 nM

From ChEMBL document CHEMBL1141441, “Crystallographic investigation of the inhibition mode of a VIM-2 metallo-beta-lactamase from Pseudomonas aeruginosa by a mercaptocarboxylate inhibitor” (J Med Chem, 2007)
